These results are taken from paper PMC6301270 (MedChemComm, 2018).

This experiment deals with T.b. brucei (strain 427) bloodstream form parasites. The experiment in a line: T.b. brucei single concentration screen (10 μM). Conditions: Trypanosoma brucei, read-out: T.b.brucei % viability (10 µM).
On to `Cc1cc(NC(=O)c2ccc(S(=O)(=O)N(Cc3ccccc3)C(C)C)cc2)no1` [MMV007133, CC(C)N(Cc1ccccc1)S(=O)(=O)c2ccc(cc2)C(=O)Nc3cc(C)on3], for which the viability (commonly a read-out of living cells in per cent, often relative to untreated cells) at 10 µM was found to be 98%. The figure for `CN1CCCN(C(c2ccccc2)c2ccc(Cl)cc2)CC1` (stereo not shown) [MMV004168, CN1CCCN(CC1)C(c2ccccc2)c3ccc(Cl)cc3] is 55%; for `CC(Oc1cccc(Cl)c1)C(=O)Nc1ccc2oc(-c3ccncc3)nc2c1` (stereo not shown) [MMV688472, CC(Oc1cccc(Cl)c1)C(=O)Nc1ccc2oc(nc2c1)-c1ccncc1] it is 71%; for `CN(C)CCNC(=O)N1CCCN(c2ncnc3cc(-c4ccccc4)sc23)CC1` [MMV024195, CN(C)CCNC(=O)N1CCCN(CC1)c2ncnc3cc(sc23)c4ccccc4] it is 79%. Take `Cc1ccc(-c2nc(CN(Cc3ccccn3)C(C)C)cs2)o1` [MMV1088520, CC(C)N(Cc1ccccn1)Cc2csc(n2)c3oc(C)cc3]: the viability at 10 µM worked out at 72%. The figure for `O=C(Nc1ccc(N2CCNCC2)cc1)c1ccn2ncc(-c3cccc(Cl)c3)c2n1` [Compound 67, Clc1cccc(c1)c2cnn3ccc(nc23)C(=O)Nc4ccc(cc4)N5CCNCC5] is 1%; for `Nc1ncc(-c2ccc(C(F)(F)F)nc2)cc1-c1ccc(C(F)(F)F)nc1` [MMV668727, Nc1ncc(cc1c2ccc(nc2)C(F)(F)F)c3ccc(nc3)C(F)(F)F] it is 75%. The figure for `CN1CCN(c2nccc3[nH]c(-c4cccc(F)c4)cc23)CC1` [MMV393144, CN1CCN(CC1)c2nccc3[nH]c(cc23)c4cccc(F)c4] is 59%.

Take `Clc1cccc(CO[C@H]2CCc3ccccc3[C@@H]2n2ccnn2)c1` [MMV676159, Clc1cccc(CO[C@H]2CCc3ccccc3[C@@H]2n4ccnn4)c1]: the viability at 10 µM was found to be 96%. The figure for `COc1cc(C2=NCCN2)ccc1-n1cc(-c2cccc(C3=NCCN3)c2)nn1` [MMV688474, COc1cc(ccc1n2cc(nn2)c3cccc(c3)C4=NCCN4)C5=NCCN5] is 105%; for `CC1=NN(c2nc3ccccc3s2)C(=O)C1Cc1cccc2ccccc12` (stereo not shown) [MMV676558, CC1=NN(C(=O)C1Cc2cccc3ccccc23)c4nc5ccccc5s4] it is 45%; for `O=C(Nc1nnc(-c2ccc(Cl)cc2)o1)c1cccc(C(F)(F)F)c1` [MMV102872, FC(F)(F)c1cccc(c1)C(=O)Nc2oc(nn2)c3ccc(Cl)cc3] it is 51%. The figure for `CC(=O)Nc1ccc(-c2noc(CC3CCCN(Cc4cccc(F)c4C)C3)n2)cc1` (stereo not shown) [MMV689061, CC1=C(F)C=CC=C1CN2CCCC(CC3=NC(C4=CC=C(NC(C)=O)C=C4)=NO3)C2] is 92%; for `COc1cc(CN2CCC3(C=Cc4ccccc43)CC2)cc2c1OCO2` [MMV688941, COc1cc(CN2CCC3(CC2)C=Cc4ccccc34)cc5OCOc15] it is 114%. The figure for `c1coc(CNc2nc(N3CCCCC3)nc3ccccc23)c1` [MMV676401, C(Nc1nc(nc2ccccc12)N3CCCCC3)c4occc4] is 58%; for `CCn1cnc2c(Nc3cc(F)cc(F)c3)nc(C#N)nc21` [MMV676881, CCn1cnc2c(Nc3cc(F)cc(F)c3)nc(nc12)C#N] it is 70%; for `CC(C)(C)n1nc(Cc2cccc3ccccc23)c2c(N)ncnc21` [MMV676599, CC(C)(C)n1nc(Cc2cccc3ccccc23)c4c(N)ncnc14] it is 87%. For `Cn1ccnc1CNCCS(=O)(=O)c1cccc(Nc2ccc(-c3cccc(F)c3)cn2)c1` [MMV688466, Cn1ccnc1CNCCS(=O)(=O)c2cccc(Nc3ccc(cn3)c4cccc(F)c4)c2], the viability at 10 µM worked out at 87%. On to `Cc1cnc(CCNC(=O)c2cc(-c3ccc(Cl)cc3)cs2)[nH]1` [MMV676350, Cc1cnc(CCNC(=O)c2cc(cs2)c3ccc(Cl)cc3)[nH]1], for which the viability at 10 µM was 47%. For `CN1CCN(c2nccc3nc(-c4ccc(F)c(F)c4)[nH]c23)CC1` [MMV676260, CN1CCN(CC1)c2nccc3nc([nH]c23)c4ccc(F)c(F)c4], the viability at 10 µM was 49%.

With `O=C(NC1=NCCS1)c1sc2cc(F)ccc2c1Cl` [MMV676584, Fc1ccc2c(Cl)c(sc2c1)C(=O)NC3=NCCS3], the viability at 10 µM is 82%. The figure for `Cc1noc(C)c1C(=O)N1CCCC(c2[nH]c3c(C)cccc3c2-c2ccncc2)C1` (stereo not shown) [MMV020623, Cc1onc(C)c1C(=O)N2CCCC(C2)c3[nH]c4c(C)cccc4c3c5ccncc5] is 78%; for `CC(C)NCC(=O)Nc1cccc(C(=O)Nc2cccc(C(F)(F)F)c2)c1` [MMV020165, CC(C)NCC(=O)Nc1cccc(c1)C(=O)Nc2cccc(c2)C(F)(F)F] it is 107%; for `COC(=O)c1ccc(F)cc1NS(=O)(=O)c1cccc(-c2cnn(Cc3ccccc3)c2)c1` [MMV688350, COC(=O)c1ccc(F)cc1NS(=O)(=O)c2cccc(c2)c3cnn(Cc4ccccc4)c3] it is 85%. The figure for `Cn1c(=O)c2c(S(C)(=O)=O)snc2n(C)c1=O` [MMV687251, CN1C(=O)N(C)c2nsc(c2C1=O)S(=O)(=O)C] is 98%; for `Clc1ccc(Cl)c(CO[C@H]2CCCC[C@@H]2n2ccnc2)c1` [MMV676048, Clc1ccc(Cl)c(CO[C@H]2CCCC[C@@H]2n3ccnc3)c1] it is 104%. The figure for `CCCc1ccc(S(=O)(=O)Nc2ccc(CN3CCN(CC4CC4)CC3)cc2)cc1` [MMV688125, CCCc1ccc(cc1)S(=O)(=O)Nc2ccc(CN3CCN(CC4CC4)CC3)cc2] is 72%. As for `CC(C)(C)C(O)C(Oc1ccc(-c2ccccc2)cc1)n1cncn1` (stereo not shown) [MMV688942, CC(C)(C)C(O)C(Oc1ccc(cc1)c2ccccc2)n3cncn3], the viability at 10 µM was found to be 79%. As for `COc1cccc(OCC(=O)c2ccc(Br)cc2)c1` [MMV676379, COc1cccc(OCC(=O)c2ccc(Br)cc2)c1], the viability at 10 µM turned out to be 104%.

Consider `Cc1cc(C)c2cc(C(=O)NC3CCCCCCC3)[nH]c2c1` [MMV687146, Cc1cc(C)c2cc([nH]c2c1)C(=O)NC3CCCCCCC3], for which the viability at 10 µM came out at 92%.

Take `Cc1cc(NCCc2ccccc2)nc(NC(=N)Nc2ccc(Cl)cc2)n1` [MMV021660, Cc1cc(NCCc2ccccc2)nc(NC(=N)Nc3ccc(Cl)cc3)n1]: the viability at 10 µM worked out at 47%. The figure for `COc1ccc(CCN2CCC(NCc3cccc(N(C)C)c3)CC2)cc1` [MMV011511, COc1ccc(CCN2CCC(CC2)NCc3cccc(c3)N(C)C)cc1] is 66%. The figure for `CC1(C)Cc2c(c(N3CCOCC3)nc3snc(Br)c23)CO1` [MMV687794, CC1(C)Cc2c(CO1)c(nc3snc(Br)c23)N4CCOCC4] is 50%. The figure for `CC1CCCN(C(=O)C(C)Nc2cc(Cl)ccc2N2CCOCC2)C1` (stereo not shown) [MMV020388, CC(Nc1cc(Cl)ccc1N2CCOCC2)C(=O)N3CCCC(C)C3] is 95%; for `O=C(OCc1ccccc1)N1CCC(c2cc(-c3ccncc3)c(-c3ccc(F)cc3)[nH]2)CC1` [MMV688509, Fc1ccc(cc1)-c1[nH]c(cc1-c1ccncc1)C1CCN(CC1)C(=O)OCc1ccccc1] it is 85%; for `Cc1nn(Cc2ccccc2)c(Cl)c1C(=O)NC1CCCCCC1` [MMV063404, Cc1nn(Cc2ccccc2)c(Cl)c1C(=O)NC3CCCCCC3] it is 96%. For the molecule `O=C(Nc1cccc(-c2ccc(NCCCN3CCCC3)nc2)c1)c1ccccc1` [MMV023953, O=C(Nc1cccc(c1)c2ccc(NCCCN3CCCC3)nc2)c4ccccc4], the viability at 10 µM was found to be 57%.
